# Measurements taken from patent US10351575B2, “Bicyclic urea, thiourea, guanidine and cyanoguanidine compounds useful for the treatment of pain” (Array BioPharma Inc., priority 2012, dated 2019).
# Molecular target: His-tagged recombinant human TrkA (Homo sapiens (Human), UniProt P04629)
# Test: TrkA LanthaScreen Eu Kinase Binding Assay
# Settings: averaged IC50; TR-FRET binding, 60 min, 22° C.; read-out: TrkA Enzyme IC50
# Method in brief: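 TR-FRET binding: 5 nM His-tagged human TrkA cytoplasmic domain with 4 nM Alexa-Fluor Tracer 236, 2 nM biotin anti-His and 2 nM Eu-streptavidin. Buffer was 25 mM MOPS pH 7.5, 5 mM MgCl2, 0.005% Triton X-100, 2% DMSO, 60 min at 22° C. IC50 from a four-parameter fit of ratiometric percent of control.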
# Sequence of His-tagged recombinant human TrkA (P04629 440-796): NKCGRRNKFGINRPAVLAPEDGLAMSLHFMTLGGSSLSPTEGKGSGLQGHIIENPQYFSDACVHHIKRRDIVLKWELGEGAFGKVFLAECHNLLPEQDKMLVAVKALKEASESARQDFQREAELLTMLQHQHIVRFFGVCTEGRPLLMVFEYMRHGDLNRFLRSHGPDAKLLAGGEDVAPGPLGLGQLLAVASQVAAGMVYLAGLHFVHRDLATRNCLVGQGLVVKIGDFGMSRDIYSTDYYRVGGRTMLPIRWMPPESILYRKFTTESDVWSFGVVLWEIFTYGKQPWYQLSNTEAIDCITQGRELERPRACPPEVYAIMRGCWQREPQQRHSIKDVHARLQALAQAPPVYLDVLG
row,SMILES,IC50 [nM]
1,"COc1nn(-c2ccccc2)c(NC(=O)NC2CCN(C)c3ccccc32)c1C (stereo not shown) [Example 39, 1-(3-methoxy-4-methyl-1-phenyl-1H-pyrazol-5-yl)-3-(1-methyl-1,2,3,4-tetrahydroquinolin-4-yl)urea]",< 100
2,"CCN1CCC(NC(=O)Nc2c(C)c(-c3ccc(=O)n(C)c3)nn2-c2ccccc2)c2ccccc21 (stereo not shown) [Example 42, 1-(1-ethyl-1,2,3,4-tetrahydroquinolin-4-yl)-3-(4-methyl-3-(1-methyl-6-oxo-1,6-dihydropyridin-3-yl)-1-phenyl-1H-pyrazol-5-yl)urea]",< 100
3,"Cc1c(-c2ccc(=O)n(C)c2)nn(-c2ccccc2)c1NC(=O)NC1CCN(C)c2c(F)cc(Cl)cc21 (stereo not shown) [Example 44, 1-(6-chloro-8-fluoro-1-methyl-1,2,3,4-tetrahydroquinolin-4-yl)-3-(4-methyl-3-(1-methyl-6-oxo-1,6-dihydropyridin-3-yl)-1-phenyl-1H-pyrazol-5-yl)urea]",< 100
4,"CCN1CCC(NC(=O)Nc2c(C)c(-c3ccc(=O)n(C)c3)nn2-c2ccccc2)c2cc(Cl)ccc21 (stereo not shown) [Example 45, 1-(6-chloro-1-ethyl-1,2,3,4-tetrahydroquinolin-4-yl)-3-(4-methyl-3-(1-methyl-6-oxo-1,6-dihydropyridin-3-yl)-1-phenyl-1H-pyrazol-5-yl)urea]",< 100
5,"CCN1CCC(NC(=O)Nc2c(C)c(OC)nn2-c2ccccc2)c2cc(Cl)ccc21 (stereo not shown) [Example 46, 1-(6-chloro-1-ethyl-1,2,3,4-tetrahydroquinolin-4-yl)-3-(3-methoxy-4-methyl-1-phenyl-1H-pyrazol-5-yl)urea]",< 100
6,"CO[C@H]1Cc2ccccc2[C@@H]1NC(=O)Nc1c2c(nn1-c1ccccc1)CCC2 [Example 47, 1-((1S,2S)-2-methoxy-2,3-dihydro-1H-inden-1-yl)-3-(2-phenyl-2,4,5,6-tetrahydrocyclopenta[c]pyrazol-3-yl)urea]",100 to 1000
7,"COCCO[C@H]1Cc2ccccc2[C@@H]1NC(=O)Nc1c2c(nn1-c1ccccc1)CCC2 [Example 48, 1-((1S,2S)-2-(2-methoxyethoxy)-2,3-dihydro-1H-inden-1-yl)-3-(2-phenyl-2,4,5,6-tetrahydrocyclopenta[c]pyrazol-3-yl)urea]",100 to 1000
8,"CCOc1nn(-c2ccccc2)c(NC(=O)N[C@H]2c3ccccc3C[C@@H]2OCCOC)c1C [Example 49, 1-(3-ethoxy-4-methyl-1-phenyl-1H-pyrazol-5-yl)-3-((1S,2S)-2-(2-methoxyethoxy)-2,3-dihydro-1H-inden-1-yl)urea]",100 to 1000
9,"COCCO[C@@H]1Cc2ccccc2[C@H]1NC(=O)Nc1c2c(nn1-c1ccccc1)CCC2 [Example 50, 1-((1R,2R)-2-(2-methoxyethoxy)-2,3-dihydro-1H-inden-1-yl)-3-(2-phenyl-2,4,5,6-tetrahydrocyclopenta[c]pyrazol-3-yl)urea]",100 to 1000
10,"CCOc1nn(-c2ccccc2)c(NC(=O)NC2CCc3ccccc32)c1C (stereo not shown) [Example 53, 1-(2,3-dihydro-1H-inden-1-yl)-3-(3-ethoxy-4-methyl-1-phenyl-1H-pyrazol-5-yl)urea]",100 to 1000
11,"Cc1c(-c2cnn(C)c2)nn(-c2ccccc2)c1NC(=O)N[C@@H]1c2ccccc2C[C@H]1O [Example 65, 1-(1′,4-dimethyl-1-phenyl-1H,1′H-[3,4′-bipyrazol]-5-yl)-3-((1R,2R)-2-hydroxy-2,3-dihydro-1H-inden-1-yl)urea]",< 100
12,"Cc1c(-c2cc(C)c(=O)n(C)c2)nn(-c2ccccc2)c1NC(=O)N[C@@H]1c2ccccc2C[C@H]1O [Example 69, 1-(3-(1,5-dimethyl-6-oxo-1,6-dihydropyridin-3-yl)-4-methyl-1-phenyl-1H-pyrazol-5-yl)-3-((1R,2R)-2-hydroxy-2,3-dihydro-1H-inden-1-yl)urea]",< 100
13,"Cc1ncc(-c2nn(-c3ccccc3)c(NC(=O)N[C@@H]3c4cc(Cl)ccc4C[C@H]3O)c2C)cn1 [Example 71, 1-((1,2-trans)-6-chloro-2-hydroxy-2,3-dihydro-1H-inden-1-yl)-3-(4-methyl-3-(2-methylpyrimidin-5-yl)-1-phenyl-1H-pyrazol-5-yl)urea]",< 100
14,"Cc1ncc(-c2nn(-c3ccccc3)c(NC(=O)N[C@@H]3c4ccccc4C(C)(C)[C@H]3O)c2C)cn1 [Example 73, 1-((1,2-trans)-2-hydroxy-3,3-dimethyl-2,3-dihydro-1H-inden-1-yl)-3-(4-methyl-3-(2-methylpyrimidin-5-yl)-1-phenyl-1H-pyrazol-5-yl)urea]",< 100
15,"Cc1c(OC[C@H]2CN(C)CCO2)nn(-c2ccccc2)c1NC(=O)N[C@H]1c2ccccc2C(C)(C)C[C@@H]1O [Example 75, 1-((1S,2S)-2-hydroxy-4,4-dimethyl-1,2,3,4-tetrahydronaphthalen-1-yl)-3-(4-methyl-3-(((R)-4-methylmorpholin-2-yl)methoxy)-1-phenyl-1H-pyrazol-5-yl)urea]",< 100

# Further lines, results first:
row,IC50 [nM],SMILES
1,100 to 1000,"Cc1c(-c2cnn(C)c2)nn(-c2ccccc2)c1NC(=O)NC1CCN(C)c2ccccc21 (stereo not shown) [Example 40, 1-(1′,4-dimethyl-1-phenyl-1H,1′H-[3,4′-bipyrazol]-5-yl)-3-(1-methyl-1,2,3,4-tetrahydroquinolin-4-yl)urea]"
2,< 100,"Cc1c(-c2ccc(=O)n(C)c2)nn(-c2ccccc2)c1NC(=O)NC1CCN(C)c2ccccc21 (stereo not shown) [Example 41, 1-(1-methyl-1,2,3,4-tetrahydroquinolin-4-yl)-3-(4-methyl-3-(1-methyl-6-oxo-1,6-dihydropyridin-3-yl)-1-phenyl-1H-pyrazol-5-yl)urea]"
3,100 to 1000,"Cc1c(-c2ccc(=O)n(C)c2)nn(-c2ccccc2)c1NC(=O)NC1CCN(C)c2c(F)cccc21 (stereo not shown) [Example 43, 1-(8-fluoro-1-methyl-1,2,3,4-tetrahydroquinolin-4-yl)-3-(4-methyl-3-(1-methyl-6-oxo-1,6-dihydropyridin-3-yl)-1-phenyl-1H-pyrazol-5-yl)urea]"
4,100 to 1000,"COCCO[C@H]1Cc2ccccc2[C@@H]1NC(=O)Nc1c(C)c(-c2cnn(C)c2)nn1-c1ccccc1 [Example 51, 1-(1′,4-dimethyl-1-phenyl-1H,1′H-[3,4′-bipyrazol]-5-yl)-3-((1S,2S)-2-(2-methoxyethoxy)-2,3-dihydro-1H-inden-1-yl)urea]"
5,100 to 1000,"COCCO[C@H]1Cc2ccccc2[C@@H]1NC(=O)Nc1c(Br)c(C)nn1-c1ccccc1 [Example 52, 1-(4-bromo-3-methyl-1-phenyl-1H-pyrazol-5-yl)-3-((1S,2S)-2-(2-methoxyethoxy)-2,3-dihydro-1H-inden-1-yl)urea]"
6,100 to 1000,"CCOc1nn(-c2ccccc2)c(NC(=O)N[C@H]2CCc3ccccc32)c1C [Example 54, (S)-1-(2,3-dihydro-1H-inden-1-yl)-3-(3-ethoxy-4-methyl-1-phenyl-1H-pyrazol-5-yl)urea]"
7,< 100,"CNC(=O)c1nn(-c2ccccc2)c(NC(=O)N[C@@H]2c3ccccc3C3(CC3)[C@H]2O)c1C [Example 59, 215-(3-(trans-2′-hydroxy-2′,3′-dihydrospiro[cyclopropane-1,1′-inden]-3′-yl)ureido)-N,4-dimethyl-1-phenyl-1H-pyrazole-3-carboxamide]"
8,< 100,"Cc1ncc(-c2nn(-c3ccccc3)c(NC(=O)N[C@@H]3c4ccccc4C[C@H]3O)c2C)cn1 [Example 66, 1-((1R,2R)-2-hydroxy-2,3-dihydro-1H-inden-1-yl)-3-(4-methyl-3-(2-methylpyrimidin-5-yl)-1-phenyl-1H-pyrazol-5-yl)urea]"
9,< 100,"CCOc1ncc(-c2nn(-c3ccccc3)c(NC(=O)N[C@@H]3c4ccccc4C[C@H]3O)c2C)cn1 [Example 67, 1-(3-(2-ethoxypyrimidin-5-yl)-4-methyl-1-phenyl-1H-pyrazol-5-yl)-3-((1R,2R)-2-hydroxy-2,3-dihydro-1H-inden-1-yl)urea]"
10,< 100,"COc1ncc(-c2nn(-c3ccccc3)c(NC(=O)N[C@@H]3c4ccccc4C[C@H]3O)c2C)cn1 [Example 68, 1-((1R,2R)-2-hydroxy-2,3-dihydro-1H-inden-1-yl)-3-(3-(2-methoxypyrimidin-5-yl)-4-methyl-1-phenyl-1H-pyrazol-5-yl)urea]"
11,< 100,"Cc1c(-c2cnn(C)c2)nn(-c2ccccc2)c1NC(=O)N[C@@H]1c2cc(Cl)ccc2C[C@H]1O [Example 70, 1-((1,2-trans)-6-chloro-2-hydroxy-2,3-dihydro-1H-inden-1-yl)-3-(1′,4-dimethyl-1-phenyl-1H,1′H-[3,4′-bipyrazol]-5-yl)urea]"
12,< 100,Cc1c(-c2cnn(C)c2)nn(-c2ccccc2)c1NC(=O)N[C@@H]1c2ccccc2C(C)(C)[C@H]1O [Example 72]
13,< 100,"Cc1c(OC[C@H]2CN(C)CCO2)nn(-c2ccccc2)c1NC(=O)N[C@@H]1c2ccccc2C(C)(C)C[C@H]1O [Example 74, 1-((1R,2R)-2-hydroxy-4,4-dimethyl-1,2,3,4-tetrahydronaphthalen-1-yl)-3-(4-methyl-3-(((R)-4-methylmorpholin-2-yl)methoxy)-1-phenyl-1H-pyrazol-5-yl)urea]"
14,< 100,"Cc1c(OC[C@@H]2CN(C)CCO2)nn(-c2ccccc2)c1NC(=O)N[C@@H]1c2ccccc2C(C)(C)C[C@H]1O [Example 76, 1-((1R,2R)-2-hydroxy-4,4-dimethyl-1,2,3,4-tetrahydronaphthalen-1-yl)-3-(4-methyl-3-(((S)-4-methylmorpholin-2-yl)methoxy)-1-phenyl-1H-pyrazol-5-yl)urea]"
15,< 100,"Cc1c(OC[C@H]2CN(C)CCO2)nn(-c2ccccc2)c1NC(=O)NC1c2cc(F)c(F)cc2C(C)(C)C[C@H]1O (stereo partly drawn) [Example 77, 1-(trans-6,7-difluoro-2-hydroxy-4,4-dimethyl-1,2,3,4-tetrahydronaphthalen-1-yl)-3-(4-methyl-3-(((R)-4-methylmorpholin-2-yl)methoxy)-1-phenyl-1H-pyrazol-5-yl)urea]"
16,< 100,"Cc1c(OC[C@H]2CN(C)CCO2)nn(-c2ccccc2)c1NC(=O)NC1c2ccccc2C2(CC2)[C@@H]1O (stereo partly drawn) [Example 78, 1-(trans-2′-hydroxy-2,3′-dihydrospiro[cyclopropane-1,1′-inden]-3′-yl)-3-(4-methyl-3-(((R)-4-methylmorpholin-2-yl)methoxy)-1-phenyl-1H-pyrazol-5-yl)urea]"
